Consider three compounds from US20110111976A1, “MICRORNA BIOMARKERS OF TISSUE INJURY” (priority 2008, published 2011).

The test system of data set [1] is Sprague-Dawley rats. The data set can be described thus: Individual sample study: miR-133 in blood plasma of toxicant-treated rats by qPCR. The conditions noted are these: individual male rats. The class given is in vivo, rat. As to the method:
(§1) To follow up on the initial results shown in Example 2, blood samples from 44 individual rats that had been treated with varying doses of CBrCl3, CCl4 (another liver toxicant), or TMPD were evaluated using qPCR of miR-122 and miR-133. In addition, data from histopathology and a panel of standard biomarkers (ALT, AST, CK, skTnI, etc.) were also available for these same individual rats and were used to compare the results from microRNA assays with the standard histopathology and protein biomarkers.
(§2) Animals Male and female Sprague-Dawley rats were obtained from Charles River Laboratories, Inc. (Raleigh, N.C.). The rats were approximately seven to eight weeks of age and weighed from 125 to 325 grams at the start of the study. The animals were acclimated for approximately one week and randomized into treatment and control groups. During the toxicity studies targeting liver, the animals were maintained on a caloric-restricted diet, and fasted overnight prior to necropsy. Doses were different for each model compound tested and were calculated based on animal body weight. For the compounds, routes of administration, dose groups, and time points, see the below compound section.
(§3) Skeletal Muscle Toxicant • 2,3,5,6-tetramethyl-p phenylenediamine (TMPD) • Doses: 2, 4 mg/kg bid • Dosing: 0.9% NaCl by subcutaneous injection • Animals: Sprague Dawley Male Rats • Time Points: TMPD Plasma (Day 2) and Controls (5 samples per group, […] pooled=500 μl total).
(§4) Liver Toxicant • Trichlorobromomethane (CCl3Br) • Doses: 0.03, 0.1 ml/kg • Dosing: 100% liquid paraffin by oral gavage • Animals: Sprague Dawley Male Rats • Time Point: CCl3Br Plasma (Days 2 & 4) and Controls (4 controls, 3 samples per group, 100 μl each) • Carbon Tetrachloride (CCl4) • Doses: 0.03, 0.1, 0.3 ml/kg • Dosing: 100% liquid paraffin by oral gavage • Animals: Sprague Dawley Male Rats • Time Point: CCl4 Plasma (Days 2) and Controls (4 samples per group, 100 μl each)
(§5) Plasma Samples All plasma samples were collected in EDTA tubes at final necropsy from the vena cava. Samples were inverted several times, and centrifuged for 20 minutes at 2,900 RPM at 4° C. Plasma samples were removed and stored at −70° C. Pooled blood plasma samples from rat toxicology studies were analyzed using a qPCR-based assay (Raymond et al, 2005, RNA 11:1737; WO 2006/081282). Control slope and intercept values for miR-122 and miR-133 were calculated from a concentration series of each microRNA added to total yeast RNA and then analyzed using the qPCR assay for each miRNA. The slope and intercept values from the standard curve were used to calculate the amount of each respective miRNA in each sample expressed as the number of miRNA copies per 20 ng of total RNA in each sample. Cycle threshold values (Ct) for each sample were converted to miRNA copy numbers by comparison to standard curves generated using single stranded mature miRNAs and are expressed in Table 4 as copies/20 pg input RNA (approximately equivalent to copies/cell).

The test system of data set [2] is Sprague-Dawley rats. Kind of data set: Liver histopathology scores of toxicant-treated rats. Type of data set: in vivo, rat. More on the design: key to Liver Histopathology Scores: Vacuolation / Liver Histopathology Scores: Necrosis / Liver Histopathology Scores: Degeneration / Liver Histopathology Scores: Inflammation / Liver Histopathology Scores: Mitotic Index: 1 = very slight; 2 = slight or small; 3 = moderate; 4 = marked; 5 = severe tissue injury. As to the method:
as §1, §2, §4

For data set [3], the system named is Sprague-Dawley rats. The data set can be described thus: Clinical chemistry (AST, ALT, CK) in blood plasma of toxicant-treated rats. The class given is in vivo, rat. The conditions noted are these: individual male rats. Here is the method:
as §1, §2, §3, §4

Data set [4] deals with Sprague-Dawley rats. The data set can be described thus: Individual sample study: miR-122 in blood plasma of toxicant-treated rats by qPCR. The class given is in vivo, rat. The note with it: individual male rats. Here is the method:
as §1, §2, §3, §4, §5
A general note: Quantitative PCR measures a nucleic acid by following its amplification.

Data set [5] concerns Sprague-Dawley rats. Kind of data set: Pooled sample study: miR-122 in blood plasma of toxicant-treated rats by qPCR. The class given is in vivo. The note with it: pooled rat plasma (5 samples), cerivastatin 1.0 mg/kg/day oral Day 14, CBrCl3 0.1 ml/kg oral Days 2 & 4, TMPD 6 mg/kg bid s.c. Day 3; for miR-122 Copies / miR-122 Ct Mean: 250 ng total RNA input. As to the method: (§6) To explore the feasibility of detecting miRNA tissue injury biomarkers in plasma, a pilot study was performed in which pooled blood plasma samples from rat toxicology studies were analyzed using a qPCR-based assay (Raymond et at, 2005, RNA 11:1737; WO 2006/081282). The miRNAs miR-122 and miR-133 were chosen for quantification because they are extremely abundant and specific to liver and muscle, respectively (FIG. 1). Stored plasma samples from rats that had previously been treated with a liver damaging agent trichlorobromomethane (CBrCl3) or with one of two muscle damaging agents 2,3,5,6-tetramethyl-p phenylenediamine (TMPD) or cerivastatin) were assayed form miRNA levels using qPCR.
as §2
(§7) Skeletal Muscle Toxicant • 2,3,5,6-tetramethyl-p phenylenediamine (TMPD) • Doses: 6 mg/kg bid • Dosing: 0.9% NaCl by subcutaneous injection • Animals: Sprague Dawley Male Rats • Time Points Day 3, TMPD Plasma (Day 3) and Controls (5 samples, 100 ul each pooled=500 ul total).
(§8) Liver Toxicant • Trichlorbromomethane (CCl3Br) • Doses: 0.1 ml/kg • Dosing: 100% liquid paraffin by oral gavage • Animals: Sprague Dawley Male Rats • Time Point: Day 2, 4 CCl3Br Plasma (Days 2 & 4) and Controls (5 samples, 100 ul each pooled=500 ul total)
(§9) Liver and Muscle Toxicant • Cerivastatin • Doses: 1.0 mg/kg/day • Dosing: 0.5% methylcellulose by oral gavage • Animals: Sprague Dawley Female Rats • Time Point Day 14 Cerivastatin Plasma (Day 14) and Controls (5 samples, 100 ul each pooled=500 μl total)
as §5, with “expressed” for “expressed in Table 4”

Data set [6] deals with Sprague-Dawley rats. Kind of data set: Pooled sample study: miR-133 in blood plasma of toxicant-treated rats by qPCR. The class given is in vivo. The note with it: pooled rat plasma (5 samples), cerivastatin 1.0 mg/kg/day oral Day 14, CBrCl3 0.1 ml/kg oral Days 2 & 4, TMPD 6 mg/kg bid s.c. Day 3; for miR-133 Copies / miR-133 Ct Mean: 250 ng total RNA input. As to the method: as §6, §2, §7, §8, §9
as §5, with “expressed” for “expressed in Table 4”

The mark [7] stands for this setting: CCl4 0.03 ml/kg oral gavage, Day 2, plasma.
Setting [8] is: CCl4 0.1 mL/kg oral gavage, Day 2, plasma.
The mark [9] stands for this setting: CCl4 0.3 mL/kg oral gavage, Day 2, plasma.
The mark [10] stands for this setting: CCl4 0.03 ml/kg oral gavage, Day 2, individual male rats.
The mark [11] stands for this setting: CCl4 0.1 mL/kg oral gavage, Day 2, individual male rats.
[12] abbreviates: CCl4 0.3 mL/kg oral gavage, Day 2, individual male rats.
[13] abbreviates: CBrCl3 0.03 mL/kg oral gavage, Day 2, plasma.
[14] abbreviates: CBrCl3 0.03 mL/kg oral gavage, Day 4, plasma.
Where [15] appears, read: CBrCl3 0.1 mL/kg oral gavage, Day 4, plasma.
Where [16] appears, read: CBrCl3 0.03 mL/kg oral gavage, Day 2, individual male rats.
The mark [17] stands for this setting: CBrCl3 0.03 mL/kg oral gavage, Day 4, individual male rats.
[18] abbreviates: CBrCl3 0.1 mL/kg oral gavage, Day 4, individual male rats.

Each structure is given as a SMILES string. Values joined by “and” are separate entries in the source; they are usually repeats but may differ in a detail not shown here. Identical values can stand only once.

Take `ClC(Cl)(Cl)Cl` [CCl4, Carbon Tetrachloride]: the miR-133 in the data set with Sprague-Dawley rats [1] (setting [7]) was 0.3 copies/20 pg input RNA (2×) and 0.5 copies/20 pg input RNA and 1.0 copies/20 pg input RNA; in the data set on Sprague-Dawley rats [1] (setting [8]), 0.3 copies/20 pg input RNA (2×) and 0.4 copies/20 pg input RNA (2×); in the data set with Sprague-Dawley rats [1] (setting [9]), 1.4 copies/20 pg input RNA and 0.4 copies/20 pg input RNA and 0.3 copies/20 pg input RNA and 0.1 copies/20 pg input RNA. The “Liver Histopathology Scores: Degeneration” value with Sprague-Dawley rats [2] (setting [10]) is 0; with Sprague-Dawley rats [2] (setting [11]), 0 (2×) and 1 (2×); with Sprague-Dawley rats [2] (setting [12]), 2. The “Liver Histopathology Scores: Inflammation” value was 0 in the data set with Sprague-Dawley rats [2] (setting [10]); 0 (2×) and 2 and 1 in the data set on Sprague-Dawley rats [2] (setting [11]); 2 (3×) and 1 in the data set on Sprague-Dawley rats [2] (setting [12]). Further, the “Liver Histopathology Scores: Necrosis” value in the data set on Sprague-Dawley rats [2] (setting [10]) is 0; in the data set on Sprague-Dawley rats [2] (setting [11]) it was 0 (2×) and 1 (2×); in the data set with Sprague-Dawley rats [2] (setting [12]), 1. Also, the “Liver Histopathology Scores: Vacuolation” value in the data set with Sprague-Dawley rats [2] (setting [10]) is 0; with Sprague-Dawley rats [2] (setting [11]) it was 0 and 1 (3×); in the data set on Sprague-Dawley rats [2] (setting [12]), 0. The ALT in the data set on Sprague-Dawley rats [3] (setting [7]) was 25 Unit (3×) and 20 Unit; with Sprague-Dawley rats [3] (setting [8]), 25 Unit and 40 Unit (2×) and 41 Unit; in the data set on Sprague-Dawley rats [3] (setting [9]), 87 Unit and 77 Unit and 62 Unit and 56 Unit. Moreover, the AST was 92 Unit and 88 Unit and 76 Unit and 84 Unit with Sprague-Dawley rats [3] (setting [7]); 96 Unit and 116 Unit and 102 Unit and 126 Unit in the data set with Sprague-Dawley rats [3] (setting [8]); 345 Unit and 216 Unit and 157 Unit and 225 Unit in the data set on Sprague-Dawley rats [3] (setting [9]). Besides, the miR-122 with Sprague-Dawley rats [4] (setting [7]) is 2.4 copies/20 pg input RNA and 5.5 copies/20 pg input RNA and 8.7 copies/20 pg input RNA and 10.0 copies/20 pg input RNA; in the data set on Sprague-Dawley rats [4] (setting [8]) it was 7.9 copies/20 pg input RNA and 107.4 copies/20 pg input RNA and 14.3 copies/20 pg input RNA and 119.4 copies/20 pg input RNA; in the data set on Sprague-Dawley rats [4] (setting [9]), 1563.6 copies/20 pg input RNA and 194.3 copies/20 pg input RNA and 191.4 copies/20 pg input RNA and 164.6 copies/20 pg input RNA.

In the case of `COCc1c(C(C)C)nc(C(C)C)c(/C=C/[C@@H](O)C[C@@H](O)CC(=O)O)c1-c1ccc(F)cc1` [Cerivastatin], in the data set with Sprague-Dawley rats [5], the “miR-122 Copies” value worked out at 353217, the “miR-122 Ct Mean” value is listed as 24.2231 and the “miR-122 Copies/20 pg” value was found to be 28.3 Copies/20 pg. In the data set with Sprague-Dawley rats [6], the “miR-133 Copies” value came out at 7279643, the “miR-133 Ct Mean” value is 23.1065 and the “miR-133 Copies/20 pg” value was found to be 582.4 Copies/20 pg.

For the compound `ClC(Cl)(Cl)Br` [CBrCl3, trichlorobromomethane], in the data set with Sprague-Dawley rats [5], the “miR-122 Copies” value is given as 8.8E+08, the “miR-122 Ct Mean” value is on record as 12.6961 and the “miR-122 Copies/20 pg” value came out at 70674.9 Copies/20 pg. In the data set on Sprague-Dawley rats [6], the “miR-133 Copies” value is listed as 85617.9, the “miR-133 Ct Mean” value worked out at 29.6296 and the “miR-133 Copies/20 pg” value is reported as 6.8 Copies/20 pg. Besides, in the data set on Sprague-Dawley rats [1] (setting [13]), the miR-133 was 0.7 copies/20 pg input RNA and 0.2 copies/20 pg input RNA and 0.4 copies/20 pg input RNA. For the same compound, in the data set on Sprague-Dawley rats [1] (setting [14]), the miR-133 was 1.2 copies/20 pg input RNA and 2.0 copies/20 pg input RNA and 0.3 copies/20 pg input RNA. The miR-133 with Sprague-Dawley rats [1] (setting [15]) is 0.8 copies/20 pg input RNA and 0.4 copies/20 pg input RNA (2×). In addition, in the data set with Sprague-Dawley rats [2] (setting [16]), the “Liver Histopathology Scores: Degeneration” value is 2 and 0 and 1; the “Liver Histopathology Scores: Inflammation” value was 1 (2×) and 0; the “Liver Histopathology Scores: Mitotic Index” value stood at 0; the “Liver Histopathology Scores: Necrosis” value was 1 and 0 (2×). In addition, in the data set with Sprague-Dawley rats [2] (setting [17]), the “Liver Histopathology Scores: Degeneration” value is 0 and 1 (2×); the “Liver Histopathology Scores: Inflammation” value is given as 0; the “Liver Histopathology Scores: Mitotic Index” value came to 0; the “Liver Histopathology Scores: Necrosis” value was 0. Further, in the data set on Sprague-Dawley rats [2] (setting [18]), the “Liver Histopathology Scores: Degeneration” value was 2 and 1 (2×); the “Liver Histopathology Scores: Inflammation” value is recorded as 2; the “Liver Histopathology Scores: Mitotic Index” value was 1 (2×) and 2; the “Liver Histopathology Scores: Necrosis” value is 3 and 1 (2×). In the data set with Sprague-Dawley rats [3] (setting [13]), the ALT is 142 Unit and 36 Unit (2×); the AST is 366 Unit and 83 Unit and 93 Unit. In the data set on Sprague-Dawley rats [3] (setting [14]), the ALT is 34 Unit and 43 Unit and 32 Unit; the AST is 138 Unit and 118 Unit and 108 Unit. Also, in the data set with Sprague-Dawley rats [3] (setting [15]), the ALT was 1388 Unit and 191 Unit and 223 Unit; the AST is 1543 Unit and 370 Unit and 519 Unit. Besides, the miR-122 in the data set with Sprague-Dawley rats [4] (setting [13]) is 860.8 copies/20 pg input RNA and 45.1 copies/20 pg input RNA and 47.3 copies/20 pg input RNA. In addition, the miR-122 in the data set on Sprague-Dawley rats [4] (setting [14]) is 90.2 copies/20 pg input RNA and 56.2 copies/20 pg input RNA and 20.5 copies/20 pg input RNA. Further, the miR-122 with Sprague-Dawley rats [4] (setting [15]) is 4049.2 copies/20 pg input RNA and 335.5 copies/20 pg input RNA and 304.0 copies/20 pg input RNA.
